One data set deals with Dipeptidyl peptidase 8 (Homo sapiens, UniProt Q6V1X1). The experiment in a line: Inhibition of DPP8 (unknown origin) using Gly-Pro-AMC as substrate preincubated for 15 mins followed by substrate addition measured at 60 secs interval for 20 mins by fluorometic method.
For the next data set, the target named is Dipeptidyl peptidase 9 (Homo sapiens, UniProt Q86TI2). Nature of the data set: Inhibition of DPP9 (unknown origin) using Gly-Pro-AMC as substrate preincubated for 15 mins followed by substrate addition measured at 60 secs interval for 20 mins by fluorometic method.
Data set [1] is described as follows: Half life in Sprague-Dawley rat at 5 mg/kg, iv measured after 48 hrs by LC-MS/MS analysis. It is filed as ADME, organism-based. Particulars: in vivo.
Data set [2] in a line: Cmax in Sprague-Dawley rat at 5 mg/kg, iv measured after 48 hrs by LC-MS/MS analysis. It is filed as ADME, organism-based. Also noted: dose 5 mg/kg, route intravenous. The conditions noted are these: in vivo.
Data set [3] in a line: AUC (0 to infinity) in Sprague-Dawley rat at 5 mg/kg, iv measured after 48 hrs by LC-MS/MS analysis. It is filed as ADME, organism-based. The arrangement: dose 5 mg/kg, route intravenous, time infinity. Particulars: in vivo.
Data set [4] can be described thus: Clearance in Sprague-Dawley rat at 5 mg/kg, iv measured after 48 hrs by LC-MS/MS analysis. It is filed as ADME, organism-based. Particulars: in vivo.
A short description of data set [5]: Oral bioavailability in Sprague-Dawley rat at 10 mg/kg via gavage after 48 hrs by LC-MS/MS analysis. It is filed as ADME, organism-based. Particulars: in vivo.
Data set [6] can be described thus: Stability in PBS at pH 7.4 assessed as compound remaining at 1 uM after 120 mins by LC-MS/MS analysis relative to control. It is filed as physicochemical. Particulars: read-out: Stability.
Data set [7] is described as follows: Stability in Sprague-Dawley rat plasma assessed as compound remaining at 1 uM measured up to 120 mins by LC-MS/MS analysis relative to control. It is filed as ADME, cell-free. Particulars: read-out: Stability.
Data set [8] in a line: Cytotoxicity against human LO2 cells assessed as cell viability at 50 uM after 48 hrs by MTT assay. It is filed as cell-based, L02. The conditions noted are these: read-out: Activity. On the technique in general: Formazan colour is commonly taken as a measure of viable cells.
The next data set has as its system Mus musculus. The experiment in a line: Anti-diabetic activity in 12 hrs-fasted ICR mouse assessed as reduction in blood glucose AUC (0 to 120 mins)at 10 mg/kg, po pretreated for 60 mins followed by glucose challenge and measured after 120 mins post glucose challenge by OGTT relative to control. It is filed as functional. Also noted: scale not given: the % may be the effect or the level left.

Data set [9] is described as follows: Half life in Sprague-Dawley rat at 10 mg/kg, po via gavage after 48 hrs by LC-MS/MS analysis. It is filed as ADME, organism-based. Particulars: in vivo.
A short description of data set [10]: Tmax in Sprague-Dawley rat at 10 mg/kg, po via gavage after 48 hrs by LC-MS/MS analysis. Particulars: in vivo. It is filed as ADME, organism-based.
Data set [11] can be described thus: Cmax in Sprague-Dawley rat at 10 mg/kg, po via gavage after 48 hrs by LC-MS/MS analysis. It is filed as ADME, organism-based. The arrangement: dose 10 mg/kg, route oral. Particulars: in vivo.
A short description of data set [12]: AUC (0 to infinity) in Sprague-Dawley rat at 10 mg/kg, po via gavage after 48 hrs by LC-MS/MS analysis. It is filed as ADME, organism-based. The arrangement: dose 10 mg/kg, route oral, time infinity. Particulars: in vivo.
Data set [13] in a line: Clearance in Sprague-Dawley rat at 10 mg/kg, po via gavage after 48 hrs by LC-MS/MS analysis. The conditions noted are these: in vivo. It is filed as ADME, organism-based.
Data set [14] is filed under the species Rattus norvegicus. Nature of the data set: animal or person. The conditions noted are these: Sprague-Dawley, po, 2 h, read-out: INH.
Description: Anti-diabetic activity in Sprague-Dawley rat assessed as redcution in DPP4 inhibition in plasma at 10 mg/kg, po via gavage administered as single dose measured at 2 hrs post dose by fluorometric assay relative to control
A short description of data set [15]: Cytotoxicity against human LO2 cells assessed as cell viability at 10 uM after 48 hrs by MTT assay. It is filed as cell-based, L02. The conditions noted are these: read-out: Activity.
Data set [16] is described as follows: Cytotoxicity against human LO2 cells assessed as cell viability at 20 uM after 48 hrs by MTT assay. It is filed as cell-based, L02. Particulars: read-out: Activity.
For data set [17], the system named is Rattus norvegicus. The experiment in a line: Anti-diabetic activity in Sprague-Dawley rat assessed as redcution in DPP4 inhibition in plasma at 10 mg/kg, po via gavage administered as single dose measured up to 12 hrs post dose by fluorometric assay relative to control. Particulars: read-out: INH.
The subject of data set [18] is Rattus norvegicus. Nature of the data set: Anti-diabetic activity in Sprague-Dawley rat assessed as redcution in DPP4 inhibition in plasma at 10 mg/kg, po via gavage administered as single dose measured after 12 hrs post dose by fluorometric assay. It is filed as functional, organism-based.
Data set [19] in a line: Half life in Sprague-Dawley rat assessed as (R)-2-((8-(3-aminopiperidin-1-yl)-7-(but-2-yn-1-yl)-3-methyl-2,6-dioxo-2,3,6,7-tetrahydro-1H-purin-1-yl)methyl)-5-chlorobenzoic acid level at 10 mg/kg, po via gavage after 48 hrs by LC-MS/MS analysis. It is filed as ADME, organism-based. Particulars: in vivo.
A short description of data set [20]: Tmax in Sprague-Dawley rat assessed as (R)-2-((8-(3-aminopiperidin-1-yl)-7-(but-2-yn-1-yl)-3-methyl-2,6-dioxo-2,3,6,7-tetrahydro-1H-purin-1-yl)methyl)-5-chlorobenzoic acid level at 10 mg/kg, po via gavage after 48 hrs by LC-MS/MS analysis. It is filed as ADME, organism-based. Particulars: in vivo.
Data set [21] can be described thus: Cmax in Sprague-Dawley rat assessed as (R)-2-((8-(3-aminopiperidin-1-yl)-7-(but-2-yn-1-yl)-3-methyl-2,6-dioxo-2,3,6,7-tetrahydro-1H-purin-1-yl)methyl)-5-chlorobenzoic acid level at 10 mg/kg, po via gavage after 48 hrs by LC-MS/MS analysis. It is filed as ADME, organism-based. The arrangement: dose 10 mg/kg, route oral. Particulars: in vivo.
A short description of data set [22]: AUC (0 to infinity) in Sprague-Dawley rat assessed as (R)-2-((8-(3-aminopiperidin-1-yl)-7-(but-2-yn-1-yl)-3-methyl-2,6-dioxo-2,3,6,7-tetrahydro-1H-purin-1-yl)methyl)-5-chlorobenzoic acid level at 10 mg/kg, po via gavage after 48 hrs by LC-MS/MS analysis. It is filed as ADME, organism-based. The arrangement: dose 10 mg/kg, route oral, time infinity. The conditions noted are these: in vivo.

Data set [23] can be described thus: Clearance in Sprague-Dawley rat assessed as (R)-2-((8-(3-aminopiperidin-1-yl)-7-(but-2-yn-1-yl)-3-methyl-2,6-dioxo-2,3,6,7-tetrahydro-1H-purin-1-yl)methyl)-5-chlorobenzoic acid level at 10 mg/kg, po via gavage after 48 hrs by LC-MS/MS analysis. It is filed as ADME, organism-based. Particulars: in vivo.
A short description of data set [24]: Oral bioavailability in Sprague-Dawley rat assessed as (R)-2-((8-(3-aminopiperidin-1-yl)-7-(but-2-yn-1-yl)-3-methyl-2,6-dioxo-2,3,6,7-tetrahydro-1H-purin-1-yl)methyl)-5-chlorobenzoic acid level at 10 mg/kg via gavage after 48 hrs by LC-MS/MS analysis. It is filed as ADME, organism-based. The conditions noted are these: in vivo.

Activity calls are given as the source filed them. The rule behind the calls is not given here. Bounds are passed on as bounds.

Results on three compounds are retold here after ChEMBL document CHEMBL4364319 (Eur J Med Chem, 2019).

Usually IC50 stands for the concentration at which inhibition is half-maximal. What is called half-life is the time in which the quantity being followed falls by half. For orientation: Cmax means the maximum level reached in the sampled fluid or tissue. The AUC(0-inf) is total exposure, with the tail of the curve extrapolated. A word on the clearance: it is a measure of how efficiently the substance is removed, as volume per time. What is called bioavailability is the share of a dose that reaches the circulation, judged against a reference dose that is usually intravenous. In general, Tmax refers to the time at which the peak concentration occurs. The AUC is concentration integrated over time.

Chain of Dipeptidyl peptidase 8 (Q6V1X1 whole entry): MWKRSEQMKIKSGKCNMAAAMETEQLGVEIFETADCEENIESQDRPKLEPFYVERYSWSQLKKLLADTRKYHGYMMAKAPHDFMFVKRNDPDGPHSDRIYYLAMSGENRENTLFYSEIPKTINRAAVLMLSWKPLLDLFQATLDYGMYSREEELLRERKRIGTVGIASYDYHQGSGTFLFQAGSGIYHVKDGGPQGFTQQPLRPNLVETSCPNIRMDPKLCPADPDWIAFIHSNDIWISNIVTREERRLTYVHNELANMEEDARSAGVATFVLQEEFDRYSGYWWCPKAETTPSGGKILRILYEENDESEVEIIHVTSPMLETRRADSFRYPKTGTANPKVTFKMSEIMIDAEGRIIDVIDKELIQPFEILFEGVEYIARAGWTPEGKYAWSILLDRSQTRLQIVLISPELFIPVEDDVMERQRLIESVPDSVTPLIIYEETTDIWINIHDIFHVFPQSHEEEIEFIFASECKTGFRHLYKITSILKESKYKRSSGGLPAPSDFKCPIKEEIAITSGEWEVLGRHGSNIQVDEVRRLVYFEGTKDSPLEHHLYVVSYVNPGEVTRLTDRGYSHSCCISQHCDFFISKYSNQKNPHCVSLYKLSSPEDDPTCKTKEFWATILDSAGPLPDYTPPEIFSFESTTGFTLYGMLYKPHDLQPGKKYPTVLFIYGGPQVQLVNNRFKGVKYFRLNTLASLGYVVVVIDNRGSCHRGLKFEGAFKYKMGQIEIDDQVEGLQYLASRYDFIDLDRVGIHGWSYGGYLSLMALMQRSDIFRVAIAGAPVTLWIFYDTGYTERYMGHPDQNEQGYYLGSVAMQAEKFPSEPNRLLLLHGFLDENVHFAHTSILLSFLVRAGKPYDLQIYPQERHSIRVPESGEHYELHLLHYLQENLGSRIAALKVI
Chain of Dipeptidyl peptidase 9 (Q86TI2 whole entry): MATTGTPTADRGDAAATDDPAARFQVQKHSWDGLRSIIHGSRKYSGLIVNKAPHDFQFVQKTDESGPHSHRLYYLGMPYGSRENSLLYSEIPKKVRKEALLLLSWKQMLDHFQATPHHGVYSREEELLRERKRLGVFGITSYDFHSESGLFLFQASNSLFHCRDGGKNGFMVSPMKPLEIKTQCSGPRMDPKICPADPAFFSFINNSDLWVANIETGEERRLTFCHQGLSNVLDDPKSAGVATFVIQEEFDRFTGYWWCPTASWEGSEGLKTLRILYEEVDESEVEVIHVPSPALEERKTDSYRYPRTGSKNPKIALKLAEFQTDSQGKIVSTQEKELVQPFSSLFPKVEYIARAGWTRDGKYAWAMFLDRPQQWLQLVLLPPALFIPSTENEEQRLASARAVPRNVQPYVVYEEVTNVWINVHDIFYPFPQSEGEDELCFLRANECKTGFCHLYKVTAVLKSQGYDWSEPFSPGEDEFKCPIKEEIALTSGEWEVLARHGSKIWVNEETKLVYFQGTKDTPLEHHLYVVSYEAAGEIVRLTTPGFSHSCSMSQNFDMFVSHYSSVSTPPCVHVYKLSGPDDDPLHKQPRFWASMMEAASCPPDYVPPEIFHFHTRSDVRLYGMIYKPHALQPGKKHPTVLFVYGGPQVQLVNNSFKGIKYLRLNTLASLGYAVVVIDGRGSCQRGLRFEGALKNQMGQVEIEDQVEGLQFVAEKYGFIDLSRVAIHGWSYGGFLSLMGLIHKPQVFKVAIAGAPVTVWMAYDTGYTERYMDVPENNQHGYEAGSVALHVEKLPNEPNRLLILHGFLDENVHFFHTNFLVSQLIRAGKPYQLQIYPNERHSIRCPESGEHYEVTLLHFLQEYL

Regarding `CC#CCn1c(N2CCC[C@@H](N)C2)nc2c1c(=O)n(Cc1ccc(Cl)cc1C(=O)O)c(=O)n2C`, the IC50 at Dipeptidyl peptidase 8 and at Dipeptidyl peptidase 9 was more than 100 µM in each case. For the same compound, the half-life in data set [1] was 5.24 h; in [9], 1.77 h. For the same compound, the values for the Cmax in data set [2] and in data set [11] were 30600 ng/mL and 2340 ng/mL, respectively. Further, the AUC(0-inf) in data set [3] was found to be 9620 ng·h/mL. Further, the clearance in data set [4] is 8.83 mL/min/kg. In data set [5], this compound came in with a bioavailability of 6.76%. The remaining at 2 h, 1 µM is 101% in [6] and 102% in data set [7]. In data set [8], the viability at 48 h, 50 µM was more than 90%. Further, in the data set with Mus musculus, the Activity came to 14.3%. For the same compound, the time of peak concentration (Tmax) in data set [10] is 0.17 h. In data set [12], this compound registered an AUC of 1301.87 ng·h/mL. The compound further registered a CL in data set [13] of 13.7 mL/min/kg. The inhibition in vivo at 10 mg/kg in the data set filed under Rattus norvegicus [14] was more than 80%.
On to `COc1cccc2c1C(=O)c1c(O)c3c(c(O)c1C2=O)C[C@@](O)(C(=O)CO)C[C@@H]3O[C@H]1C[C@H](N)[C@H](O)[C@H](C)O1` [DOXORUBICIN], for which the viability at 48 h, 10 µM in data set [15] came to 35%.
Take `CC#CCn1c(N2CCC[C@@H](N)C2)nc2c1c(=O)n(Cc1ccc(Cl)cc1C(=O)OCC)c(=O)n2C`: the IC50 at Dipeptidyl peptidase 8 and on Dipeptidyl peptidase 9 was more than 100 µM throughout. In addition, the remaining at 2 h, 1 µM in data set [6] stood at 99.5%; in [7], 70.2%. For the same compound, the viability at 48 h, 20 µM in [16] came out at 80%. The inhibition in vivo at 10 mg/kg in the data set on Rattus norvegicus [17] was more than 80%. The outcome in the data set on Rattus norvegicus [18] was Active. This compound also gave a half-life in data set [9] of 8.02 h. For the same compound, the t1/2 in data set [19] was 6.97 h. Also, the Tmax in [10] and in data set [20] was 0.5 h each time. Also, the Cmax was found to be 508 ng/mL in data set [11] and 401.06 ng/mL in [21]. Moreover, the exposure (AUC) in [12] worked out at 4536.25 ng·h/mL; in data set [22], 3001.17 ng·h/mL. The CL was 3.83 mL/min/kg in data set [13] and 5.83 mL/min/kg in data set [23]. For the same compound, the F in data set [24] came out at 15.6%.
